One data set addresses T1, MMP-13 (Homo sapiens, UniProt P45452).
T1 construct: purchased GenzymeTechne
As to the kind of experiment: MMP-13 inhibitory activity (fluorogenic peptide substrate enzyme assay). Format: biochemical. To be noted: compound 1 μM; substrate Cy3-PLGLK(Cy5Q)AR-NH2; 37° C., 40 min. The procedure:
To 10 μg of MMP-13 precursor (GenzymeTechne) was added 1 ml of assay buffer (50 mM Tris-HCl (pH 7.5), 10 mM CaCl2, 150 mM NaCl, 0.05% Brij-35), and 4-aminophenylmercuric acid (Sigma) was added to the final concentration of 1 mM. The MMP-13 precursor was activated by incubating at 37° C. for 2 hrs.
In a 96 well black plate (Corning), to 6.3 ng/ml of MMP-13 solution (49 μl) diluted with assay buffer was added the test compound (1 μl) diluted with dimethyl sulfoxide (DMSO) and 620 nM Cy3-PLGLK(Cy5Q)AR—NH2 (50 μl, synthesized by Amersham Biosciences) in assay buffer was added to start the enzyme reaction. After incubation at 37° C. for 40 min, 500 mM EDTA solution (6 μl) was added to stop the reaction. For measurement, Farcyte (Amersham Biosciences) was used to measure at excitation wavelength 535 nm and measurement wavelength 595 nm.
T: value of well with addition of DMSO instead of test compound
C: value of well with addition of DMSO instead of test compound and addition of EDTA solution before addition of substrate solution
X: value of well with addition of test compound
`COc1cccc(CNC(=O)c2nc3ccc(F)c(OCCc4ccc(C(=O)[O-])cc4)c3c(=O)[n-]2)c1.[Na+].[Na+]` [Example 287, Disodium 4-[2-({6-fluoro-2-[({[3-(methyloxy)phenyl]methyl}amino)carbonyl]-4-oxo-4H-quinazolin-3-id-5-yl}oxy)ethyl]benzoate]: the “MMP-13 activity inhibitory rate (%)” value was determined as 98%. Still for that read-out and setting: the same measure for `COc1cccc(CNC(=O)c2nc3scc(COCc4ccc(C(=O)[O-])cc4)c3c(=O)[n-]2)c1.[Na+].[Na+]` [Example 384, Disodium 4-{[({2-[({[3-(methyloxy)phenyl]methyl}amino)carbonyl]-4-oxo-4H-thieno[2,3-d]pyrimidin-3-id-5-yl}methyl)oxy]methyl}benzoate]: 91%; for `COc1cccc(CNC(=O)c2nc3scc(COCc4ccc(C(=O)[O-])cc4)c3c(=O)[nH]2)c1.[K+]` [Example 385, Potassium 4-{[({2-[({[3-(methyloxy)phenyl]methyl}amino)carbonyl]-4-oxo-3,4-dihydrothieno[2,3-d]pyrimidin-5-yl}methyl)oxy]methyl}benzoate]: 96%.

The data set is the same for the next values; noted with them: compound 1 μM; substrate Cy3-PLGLK(Cy5Q)AR-NH2; 37° C., 40 min; 1 µM.
As for `COc1cccc(CNC(=O)c2nc3scc(COCc4ccc(C(=O)O)cc4)c3c(=O)[nH]2)c1` [Example 217, 4-{[({2-[({[3-(methyloxy)phenyl]methyl}amino)carbonyl]-4-oxo-3,4-dihydrothieno[2,3-d]pyrimidin-5-yl}methyl)oxy]methyl}benzoic acid], the “MMP-13 activity inhibitory rate (%)” value was 100%.

As to `COc1cccc(CNC(=O)c2nc3scc(COCc4ccc(C(=O)O)cc4)c3c(=O)[nH]2)c1` [Example 386, Dipotassium 4-{[({2-[({[3-(methyloxy)phenyl]methyl}amino)carbonyl]-4-oxo-4H-thieno[2,3-d]pyrimidin-3-id-5-yl}methyl)oxy]methyl}benzoate], the “MMP-13 activity inhibitory rate (%)” value worked out at 94%.

Staying with this data set, now noted: compound 1 μM; substrate Cy3-PLGLK(Cy5Q)AR-NH2; 37° C., 40 min; read-out: MMP-13 activity inhibitory rate (%).
`COc1cccc(CNC(=O)c2nc3ccccc3c(=O)[nH]2)c1` [Example 1, N-{[3-(methyloxy)phenyl]methyl}-4-oxo-3,4-dihydroquinazoline-2-carboxamide]: the inhibition at 1 µM was determined as 91%. Still for that read-out and setting: the same measure for `COc1cccc(CNC(=O)c2nc3ccc(F)c(OCCc4ccc(C(=O)O)cc4)c3c(=O)[nH]2)c1` [Example 179, 4-[2-({6-Fluoro-2-[({[3-(methyloxy)phenyl]methyl}amino)carbonyl]-4-oxo-3,4-dihydroquinazolin-5-yl}oxy)ethyl]benzoic acid]: 99%; for `COc1cccc(CNC(=O)c2nc3sccc3c(=O)[nH]2)c1` [Example 209, N-{[3-(methyloxy)phenyl]methyl}-4-oxo-3,4-dihydrothieno[2,3-d]pyrimidine-2-carboxamide]: 94%. `O=C(O)c1ccc(COCc2csc3nc(C(=O)NCc4ccc(F)c(Cl)c4)[nH]c(=O)c23)cc1` [Example 339, 4-[({[2-({[(3-chloro-4-fluorophenyl)methyl]amino}carbonyl)-4-oxo-3,4-dihydrothieno[2,3-d]pyrimidin-5-yl]methyl}oxy)methyl]benzoic acid]: the inhibition at 1 µM stood at 96%.

As for `Cc1cc(CNC(=O)c2nc3scc(COCc4ccc(C(=O)O)cc4)c3c(=O)[nH]2)ccc1F` [Example 341, 4-[({[2-({[(4-fluoro-3-methylphenyl)methyl]amino}carbonyl)-4-oxo-3,4-dihydrothieno[2,3-d]pyrimidin-5-yl]methyl}oxy)methyl]benzoic acid], the inhibition at 1 µM came to 98%.

As to `CCOc1cccc(CNC(=O)c2nc3scc(COCc4ccc(C(=O)O)cc4)c3c(=O)[nH]2)c1` [Example 366, 4-{[({2-[({[3-(ethyloxy)phenyl]methyl}amino)carbonyl]-4-oxo-3,4-dihydrothieno[2,3-d]pyrimidin-5-yl}methyl)oxy]methyl}benzoic acid], the inhibition at 1 µM stood at 93%.

Still in this data set, the particulars now being: read-out: MMP-13 activity inhibitory rate (%), compound 1 μM; substrate Cy3-PLGLK(Cy5Q)AR-NH2; 37° C., 40 min.
Take `COc1cccc(CNC(=O)c2nc3ccc(F)c(OCCc4ccc(C(=O)O)cc4)c3c(=O)[nH]2)c1` [Example 286, Sodium 4-[2-({6-fluoro-2-[({[3-(methyloxy)phenyl]methyl}amino)carbonyl]-4-oxo-3,4-dihydroquinazolin-5-yl}oxy)ethyl]benzoate]: the inhibition at 1 µM turned out to be 97%. Turning to `COc1cccc(CNC(=O)c2nc3scc(COCc4ccc(C(=O)O)cc4)c3c(=O)[nH]2)c1` [Example 383, Sodium 4-{[({2-[({[3-(methyloxy)phenyl]methyl}amino)carbonyl]-4-oxo-3,4-dihydrothieno[2,3-d]pyrimidin-5-yl}methyl)oxy]methyl}benzoate], the inhibition at 1 µM turned out to be 91%.

Tested on in the next data set: not given
Assay: not given
Conditions: not given
For `COc1cccc(CNC(=O)c2nc3ccc(Cl)cc3c(=O)[nH]2)c1` [Example 83, 6-chloro-N-{[3-(methyloxy)phenyl]methyl}-4-oxo-3,4-dihydroquinazoline-2-carboxamide], the melting point was in the range of 203 to 206 °C. On the same count and under the same terms, under `COc1cccc(CNC(=O)c2nc3ccc(N)cc3c(=O)[nH]2)c1` [Example 100, 6-amino-N-{[3-(methyloxy)phenyl]methyl}-4-oxo-3,4-dihydroquinazoline-2-carboxamide] stands 223 to 225 °C; under `COc1cccc(CNC(=O)c2nc3ccc(I)cc3c(=O)[nH]2)c1` [Example 104, 6-iodo-N-{[3-(methyloxy)phenyl]methyl}-4-oxo-3,4-dihydroquinazoline-2-carboxamide], 219 to 220 °C.

Consider `COc1cccc(CNC(=O)c2nc3ccc(CN4CCOCC4)cc3c(=O)[nH]2)c1` [Example 116, N-{[3-(methyloxy)phenyl]methyl}-6-(morpholin-4-ylmethyl)-4-oxo-3,4-dihydroquinazoline-2-carboxamide], for which the melting point lay within 126 to 129 °C. The same measure, in the same setting: the same measure for `COc1cccc(CNC(=O)c2nc3cnn(CCCc4ccccc4)c3c(=O)[nH]2)c1` [Example 243, N-(3-methoxybenzyl)-7-oxo-1-(3-phenylpropyl)-6,7-dihydro-1H-pyrazolo[4,3-d]pyrimidine-5-carboxamide]: 138 to 140 °C; for `COc1cc(CNC(=O)c2nc3cnn(CCCc4ccccc4)c3c(=O)[nH]2)ccc1F` [Example 244, N-(4-fluoro-3-methoxybenzyl)-7-oxo-1-(3-phenylpropyl)-6,7-dihydro-1H-pyrazolo[4,3-d]pyrimidine-5-carboxamide]: 155 to 157 °C; for `COc1cccc(CNC(=O)c2nc3cnn(CCOc4ccc(C(=O)O)cc4)c3c(=O)[nH]2)c1` [Example 250, 4-[2-(5-{[(3-methoxybenzyl)amino]carbonyl}-7-oxo-6,7-dihydro-1H-pyrazolo[4,3-d]pyrimidin-1-yl)ethoxy]benzoic acid]: 230 to 231 °C. On the same count and under the same terms, the same measure for `CCOC(=O)Cc1csc2nc(C(=O)NCc3cccc(OC)c3)[nH]c(=O)c12` [Example 251, ethyl (2-{[(3-methoxybenzyl)amino]carbonyl}-4-oxo-3,4-dihydrothieno[2,3-d]pyrimidin-5-yl)acetate]: 169 to 171 °C. Still for that read-out and setting: the same measure for `CCOC(=O)Cc1ccc(OCc2csc3nc(C(=O)NCc4cccc(OC)c4)[nH]c(=O)c23)cc1` [Example 256, ethyl {4-[(2-{[(3-methoxybenzyl)amino]carbonyl}-4-oxo-3,4-dihydrothieno[2,3-d]pyrimidin-5-yl)methoxy]phenyl}acetate]: 175 to 178 °C; for `COc1cccc(CNC(=O)c2nc3scc(COc4ccc(CC(=O)O)cc4)c3c(=O)[nH]2)c1` [Example 257, {4-[(2-{[(3-methoxybenzyl)amino]carbonyl}-4-oxo-3,4-dihydrothieno[2,3-d]pyrimidin-5-yl)methoxy]phenyl}acetic acid]: 228 to 230 °C.

These data come from US9475822B2, “Substituted 2- amidoquinazol-4-ones as matrix metalloproteinase-13 inhibitors” (Takeda Pharmaceutical Company Limited, priority 2004, dated 2016).
